Results on seven compounds are retold here after patent US20170296668A1, “METHODS OF INCREASING SOLUBILITY OF POORLY SOLUBLE COMPOUNDS AND METHODS OF MAKING AND USING FORMULATIONS OF SUCH COMPOUND” (VIZURI HEALTH SCIENCES LLC, priority 2009, published 2017).

Where two headings read alike, the source gives them in different places. Bounds are passed on as bounds.

Data set [1] in a line: Solubility in Polysorbate 80 via thermal treatment process. To be noted: for Prepared Thermal Treatment Concentration in Polysorbate 80: Table XV; for solubility: polysorbate 80, organic solvent or mixture, thermodynamic from solid; for PS80 Sol. Conc. - / Jordi PS800 Results: Table III; for Flavonoid in Solvent -: PS80, HPLC, thermal treatment concentrate.
Description: The concentration of apigenin in A/PS80 was measured by HPLC-MS.
Data set [2] is described as follows: Solubility in PEG 400 / PEG 300 via thermal treatment process. The conditions noted are these: for Flavonoid in Solvent -: PEG-400, HPLC, thermal treatment concentrate; for Jordi PEG400 Results / PEG400 Sol. Conc.: Table III.
Description: • The objective of this work was to quantify a total of six different flavonoids in PS80 and PEG-400. The samples were also analyzed qualitatively to look for signs of degradation of the solvents due to the elevated temperatures required of the thermal treatment process. • This project was divided into three distinct phases: method validation/development, quantitation of the individual flavones, and qualitative analysis to look for signs of PS80/PEG400 degradation.
Data set [3] is described as follows: Boiling of flavonoid in H2O & PS80 slurry. To be noted: 2. H2O & PS80 slurry boiled; for solubility: water and polysorbate 80 slurry, aqueous with cosolvent or surfactant or cyclodextrin, thermodynamic from solid, read-out: SOLUBLE CONC. RANGE. Type of data set: physicochemical.
The conditions of data set [4]: cited from earlier work; for Lit. H2O Sol. -: Table III; for WATER SOLUBILITY (mg/ml): saturation concentrations, published sources.
The nature of data set [5]: Nonoxynol-9 concentrates via thermal treatment process. Type of data set: physicochemical. The conditions noted are these: Table XVI.
Description: (§1) The concentrates were added to water and their aqueous solution characteristics noted.
Data set [6] is described as follows: Aqueous solution clarity: water added to concentrate vs non-concentrate method.
Description: as §1
Data set [7] in a line: Solubility of concentrates in oil solvents. Type of data set: physicochemical.
Excerpt: Borage oil was obtained from Sigma-Aldrich (St. Louis, Mo.) and Mineral Oil, USP, Canola Oil and Jojoba Oil from Spectrum Chemical of New Brunswick, N.J.
The nature of data set [8]: Solubility in Ceteareth-20 via thermal treatment process. The conditions noted are these: thermal treatment >200° C.
A short description of data set [9]: Supersaturation test by addition of a crystal.
A further data set deals with EpiDerm tissue. It is filed as cell-based. The conditions noted are these: time to reduce tissue viability to 50%; unaudited values.
Setting [10] is: PS80, 1. Thermal Treatment method.

Description for EpiDerm tissue: • The purpose of this study was to compare the acute dermal irritation potential of 5 Apigenin containing formulations using the Epiderm MTT ET50 assay. The time required for a test article to reduce tissue viability to 50%, i.e. ET50, correlates well with the traditional in vivo rabbit skin irritation test • This study was conducted at MB Research Laboratories (Spinnerstown, Pa. to conduct the EpiDerm MTT Assay. EpiDerm tissue was incubated with Api Genesis formulations for 1, 4 and 24 hours (two tissues per time point for each test article). Triton X-100, 1%, was used as positive control. After incubation, the tissues were rinsed to remove test articles and cytotoxicity was determined with MTT dye [3-(4, 5-Dimethylthiazol-2-yl)-2, 5-diphenyltetrazolium bromide, Thiazolyl blue]. Only viable cells are capable of enzymatic reduction of MTT into a purple formazan product that is quantitatively measured following extraction from the tissue.

Regarding `COc1ccc([C@@H]2CC(=O)c3c(O)cc(O[C@@H]4O[C@H](CO[C@@H]5O[C@@H](C)[C@H](O)[C@@H](O)[C@H]5O)[C@@H](O)[C@H](O)[C@H]4O)cc3O2)cc1O` [Hesperidin], the “SOLUBLE CONC. RANGE” value in data set [1] (setting [10]) is less than 20 mg/mL. For the same compound, in [2], the “Molar Ratio PEG400/API (mole/mole)” value came to 21.2 mole/mole and the “Flavonoid in Solvent -” value came to 81.0 ± 8.0 mg/mL. Further, the “Jordi PEG400 Results” value in data set [2] (thermal treatment) came to 81 mg/mL. In data set [3], the “SOLUBLE CONC. RANGE” value is less than 10 mg/mL and the “SOLUBLE CONC. RANGE (% wt/wt)” value is on record as less than 1%. Besides, in data set [4], the “Lit. H2O Sol. -” value was 0.05 to 3 mg/mL and the “WATER SOLUBILITY (mg/ml)” value is “from 0.05 to 3 mg/ml”.
On to `O=c1cc(-c2ccc(O)c(O)c2)oc2cc(O)cc(O)c12` [Luteolin, 3′,4′,5,7-tetrahydroxyflavone], for which the “SOLUBLE CONC. RANGE (% wt/wt)” value in data set [1] (setting [10]) is recorded as more than 8%. In [1], the “Prepared Thermal Treatment Concentration in Polysorbate 80” value worked out at 50 mg/mL and the solubility was more than 80 mg/mL. Also, in data set [1] (thermal treatment), the “PS80 Sol. Conc. -” value is more than 80 mg/mL. In addition, in data set [2], the “Molar Ratio PEG400/API (mole/mole)” value is reported as 11.1 mole/mole and the “Flavonoid in Solvent -” value is 72.5 mg/mL. Besides, in [2] (thermal treatment), the “Jordi PEG400 Results” value came to 72.5 mg/mL and the “PEG400 Sol. Conc.” value fell in the range of 70 to 90 mg/mL. Besides, the “Prepared Thermal Treatment Concentration in Nonoxynol-9” value in [5] was 50 mg/mL. Also, in [6], the “non-concentrate method: compound, nonoxynol-9 and 17 ml water heated to near boiling, cooled” value is on record as “did precipitate”; the “non-concentrate method: compound, polysorbate 80 and 17 ml water heated to near boiling, cooled” value is “did precipitate”. For the same compound, the “Comments when 17 ml of H2O was added to 3 gms of the concentrate” value (“Comments when 17 ml of H2O was added” below) in [6] (Nonoxynol-9 concentrate) is “A clear soln formed”. For the same compound, in [6] (Polysorbate 80 concentrate), the “Comments when 17 ml of H2O was added” value was “A clear soln formed”. Also, in data set [3], the “SOLUBLE CONC. RANGE (% wt/wt)” value is on record as not above 5% and the solubility is not above 50 mg/mL. Moreover, the “solubility in the test oils” value in data set [7] (mineral, jojoba, canola, borage oils) is reported as “insoluble”. For the same compound, the “concentration of concentrate in polyglyceryl-4 oleate” value in data set [7] (room temperature) is 10000 µg/mL. For the same compound, in [8], the “Conc. In Ceteareth-20” value was approximately 10000 µg/mL. Besides, in data set [4], the “Lit. H2O Sol. -” value is 0.38 mg/mL. Moreover, the “Literature Solubility in H2O @ 25° C.” value in [4] (Table XV) was 0.14 mg/mL. The “Literature Solubility in H2O @ 25° C.” value in [4] (Table XVI) was 0.14 mg/mL.
Regarding `Cc1cccc(Nc2ccccc2C(=O)O)c1C` [Mefenamic Acid, reference compound], the “Prepared Thermal Treatment Concentration in Polysorbate 80” value in data set [1] came to 10 mg/mL. Further, in [1] (thermal treatment), the “PS80 Solubility: amount solubilized, remained solubilized @ Room Temp.” value was determined as 1 wt %. In addition, the “PEG400 Solubility: supersaturation” value in data set [9] (PEG400 solution) is “Not Sup. Sat”. Also, the “PS80 Solubility: supersaturation” value in data set [9] (PS80 solution) was “Not Sup. Sat”. The “PEG400 Solubility: amount solubilized, remained solubilized @ Room Temp.” value in data set [2] (thermal treatment) is 1 wt %. For the same compound, in data set [5], the “Prepared Thermal Treatment Concentration in Nonoxynol-9” value is 10 mg/mL. For the same compound, the “non-concentrate method: compound, nonoxynol-9 and 17 ml water heated to near boiling, cooled” value in data set [6] is “did precipitate”. Also, the “Comments when 17 ml of H2O was added” value in [6] (Nonoxynol-9 concentrate) and in data set [6] (Polysorbate 80 concentrate) was “A clear soln formed” in each case. Moreover, the “PEG400 Solubility: behaviour when H2O was added” value in data set [6] (PEG400 solution + H2O) was “Nost Mefenamic Acid ppt. out when H2O was added”. In addition, in [6] (PS80 solution + H2O), the “PS80 Solubility: behaviour when H2O was added” value was “Nost Mefenamic Acid dissolved when H2O was added”. In addition, the “non-concentrate method: compound, polysorbate 80 and 17 ml water heated to near boiling, cooled” value in data set [6] is “did precipitate”. Further, the “Literature Solubility in H2O @ 25° C.” value in data set [4] (Table XV) and in data set [4] (Table XVI) was 0.004 mg/mL throughout.
As for `O=c1c(O)c(-c2ccc(O)c(O)c2)oc2cc(O)cc(O)c12` [Quercetin], the “SOLUBLE CONC. RANGE (% wt/wt)” value in [1] (setting [10]) is reported as more than 7%. In [1], the “Flavonoid in Solvent -” value was found to be 65.0 mg/mL and the solubility is more than 70 mg/mL. Further, in [1] (thermal treatment), the “Jordi PS800 Results” value was 65 mg/mL and the “PS80 Sol. Conc. -” value is more than 80 mg/mL. Also, the “supersaturation in Ceteareth-20” value in [9] (Room Temp.) was “solubilization. Not Super Saturated at Room Temp. via”. In data set [2] (thermal treatment), the “PEG400 Sol. Conc.” value was 60 to 80 mg/mL. The “SOLUBLE CONC. RANGE (% wt/wt)” value in data set [3] is on record as <<7%. Moreover, the “Conc. In Ceteareth-20” value in data set [8] is approximately 10000 µg/mL. Besides, in data set [4], the “Lit. H2O Sol. -” value was less than 1 mg/mL and the “WATER SOLUBILITY (mg/ml)” value is listed as “*<1 mg/ml”.
As for `Oc1ccc(C=Cc2cc(O)cc(O)c2)cc1` [Resveratrol], the “SOLUBLE CONC. RANGE (% wt/wt)” value in data set [1] (setting [10]) is recorded as more than 8%. Besides, in data set [1], the “Flavonoid in Solvent -” value stood at 127.5 mg/mL and the solubility is more than 80 mg/mL. Further, in [1] (thermal treatment), the “Jordi PS800 Results” value worked out at 127.5 mg/mL and the “PS80 Sol. Conc. -” value was more than 80 mg/mL. Further, the “PEG400 Sol. Conc.” value in [2] (thermal treatment) was in the range of 80 to 100 mg/mL. Also, the “WATER SOLUBILITY (mg/ml)” value in data set [4] is “*0.1 to 0.3 mg/ml”.
For `C[C@@H]1O[C@@H](OC[C@H]2O[C@@H](Oc3c(-c4ccc(O)c(O)c4)oc4cc(O)cc(O)c4c3=O)[C@H](O)[C@@H](O)[C@@H]2O)[C@H](O)[C@H](O)[C@H]1O` [Rutin], in data set [1] (setting [10]), the “SOLUBLE CONC. RANGE (% wt/wt)” value was less than 1%. Also, the “Flavonoid in Solvent -” value in data set [1] is 14.3 mg/mL. The solubility is less than 10 mg/mL in data set [1] and less than 15 mg/mL in [3].
Consider Triton X-100, for which the “ET50” value in the data set on EpiDerm tissue came out at 5.9 h.
